Assay results taken from BindingDB's records for patent US20250214932 (Praxis Precision Medicines, 2025).

Target: Voltage-dependent T-type calcium channel subunit alpha-1G (Homo sapiens, UniProt O43497)
Assay: In Vitro Cav3.1 Single Point and IC50 (VDB) Data
Procedure: The compound plate was created at 2× concentrated in the extracellular solution. The compound was diluted to 1:2 when added to the recording well. The amount of DMSO in the extracellular solution was held constant at the level used for the highest tested concentration. For the voltage clamp experiments on Cav3.1, data were sampled at 10 KHz. After establishment of the seal and the passage in the whole cell configuration, the cells were held at −120 mV. Cav3.1 current was evoked using a 100 ms step to −20 mV (to measure resting state block), followed by a 1600 ms step to −65 mV and a second 100 ms step to −20 mV (to measure voltage dependent block). The voltage protocol was applied every 15 seconds in the absence and in the presence of the compounds under investigation. […] Current amplitude (pA) was measured in the peak 1 and 2. The average of last 3 sweeps of each liquid period (vehicle, compound under investigation, full block) was calculated. Nickel-sensitive current was used to calculate the % of inhibition in the presence of the compound under investigation.

Sequence of Voltage-dependent T-type calcium channel subunit alpha-1G (O43497 whole entry): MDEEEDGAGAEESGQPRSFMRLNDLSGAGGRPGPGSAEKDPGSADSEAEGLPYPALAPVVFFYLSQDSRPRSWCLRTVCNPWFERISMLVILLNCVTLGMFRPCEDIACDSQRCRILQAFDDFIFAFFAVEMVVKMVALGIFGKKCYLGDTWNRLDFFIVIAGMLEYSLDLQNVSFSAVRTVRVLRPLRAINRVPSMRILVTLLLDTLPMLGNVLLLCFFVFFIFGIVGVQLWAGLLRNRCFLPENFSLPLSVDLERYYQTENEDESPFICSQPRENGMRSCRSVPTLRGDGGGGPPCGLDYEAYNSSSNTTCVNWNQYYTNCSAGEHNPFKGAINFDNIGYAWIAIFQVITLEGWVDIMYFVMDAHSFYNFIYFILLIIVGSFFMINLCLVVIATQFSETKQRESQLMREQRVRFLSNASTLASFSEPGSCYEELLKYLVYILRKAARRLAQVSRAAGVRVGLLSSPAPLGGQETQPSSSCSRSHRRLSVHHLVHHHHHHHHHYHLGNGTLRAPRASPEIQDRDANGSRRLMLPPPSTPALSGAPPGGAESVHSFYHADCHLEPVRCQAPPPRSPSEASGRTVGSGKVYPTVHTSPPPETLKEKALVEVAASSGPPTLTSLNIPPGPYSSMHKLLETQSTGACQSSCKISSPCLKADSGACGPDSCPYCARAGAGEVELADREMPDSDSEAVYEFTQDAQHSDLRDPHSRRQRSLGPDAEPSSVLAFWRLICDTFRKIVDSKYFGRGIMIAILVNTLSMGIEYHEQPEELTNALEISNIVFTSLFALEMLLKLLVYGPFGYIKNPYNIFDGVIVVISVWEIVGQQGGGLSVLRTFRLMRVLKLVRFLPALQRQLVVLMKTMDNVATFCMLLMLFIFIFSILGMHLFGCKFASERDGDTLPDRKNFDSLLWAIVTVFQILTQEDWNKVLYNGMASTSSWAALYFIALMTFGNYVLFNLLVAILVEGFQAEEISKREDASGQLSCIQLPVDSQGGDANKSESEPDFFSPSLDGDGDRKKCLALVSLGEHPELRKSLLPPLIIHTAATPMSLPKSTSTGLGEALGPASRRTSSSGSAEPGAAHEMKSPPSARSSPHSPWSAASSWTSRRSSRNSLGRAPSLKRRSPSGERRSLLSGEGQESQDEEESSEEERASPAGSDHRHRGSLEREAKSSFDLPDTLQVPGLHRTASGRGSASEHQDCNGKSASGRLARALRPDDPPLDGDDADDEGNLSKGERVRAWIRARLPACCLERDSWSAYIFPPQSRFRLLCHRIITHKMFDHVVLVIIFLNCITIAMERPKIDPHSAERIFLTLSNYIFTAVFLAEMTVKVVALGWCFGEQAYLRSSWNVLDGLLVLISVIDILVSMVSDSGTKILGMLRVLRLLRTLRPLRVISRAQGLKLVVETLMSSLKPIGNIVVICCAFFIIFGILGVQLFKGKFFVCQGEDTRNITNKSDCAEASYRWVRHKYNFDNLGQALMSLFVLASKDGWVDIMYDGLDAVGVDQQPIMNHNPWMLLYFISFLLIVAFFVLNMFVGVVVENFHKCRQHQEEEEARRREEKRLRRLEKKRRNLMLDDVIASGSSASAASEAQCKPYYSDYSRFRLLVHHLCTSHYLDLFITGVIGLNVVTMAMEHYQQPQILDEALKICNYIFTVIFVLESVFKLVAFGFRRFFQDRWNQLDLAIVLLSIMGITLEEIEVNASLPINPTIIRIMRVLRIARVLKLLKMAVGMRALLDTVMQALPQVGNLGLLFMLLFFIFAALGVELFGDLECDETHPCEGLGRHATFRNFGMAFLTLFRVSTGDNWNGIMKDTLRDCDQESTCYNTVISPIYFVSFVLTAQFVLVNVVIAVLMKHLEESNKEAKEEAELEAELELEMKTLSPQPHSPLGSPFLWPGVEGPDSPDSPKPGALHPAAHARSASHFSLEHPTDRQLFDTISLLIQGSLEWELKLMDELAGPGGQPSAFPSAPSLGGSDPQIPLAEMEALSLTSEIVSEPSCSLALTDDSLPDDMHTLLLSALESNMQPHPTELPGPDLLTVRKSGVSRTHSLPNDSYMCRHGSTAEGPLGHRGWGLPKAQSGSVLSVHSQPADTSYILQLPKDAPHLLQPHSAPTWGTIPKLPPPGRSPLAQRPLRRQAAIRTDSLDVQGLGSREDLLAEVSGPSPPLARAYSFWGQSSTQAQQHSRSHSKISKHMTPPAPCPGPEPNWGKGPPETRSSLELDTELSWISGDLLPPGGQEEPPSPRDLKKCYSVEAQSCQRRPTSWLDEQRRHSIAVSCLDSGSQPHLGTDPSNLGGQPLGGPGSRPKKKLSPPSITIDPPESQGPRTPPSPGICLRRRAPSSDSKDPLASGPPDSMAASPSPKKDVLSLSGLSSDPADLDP

COc1cc(F)cc(NC(=O)C2CCC3(CC2)CN(CC(=O)NC(C)(C)C)C3)c1 [US20250214932, Example 46]
IC50: 218 nM

Cc1cc(F)cc(NC(=O)C2CCC3(CC2)CN(CC(=O)NC(C)(C)C)C3)c1 [US20250214932, Example 48]
IC50: 196 nM

O=C(Nc1cc(F)cc(C(F)F)c1)C1CCC2(CC1)CN(CCNC(=O)C1(C(F)(F)F)CCC1)C2 [US20250214932, Example 52]
IC50: 261 nM

O=C(Nc1cc(F)cc(Cl)c1)C1CCC2(CC1)CN(CC(O)C1CCCCC1)C2 (centres undefined) [US20250214932, Example 68]
IC50: 170 nM

O=C(CN1CC2(CCC(C(=O)Nc3cc(F)cc(C(F)F)c3)CC2)C1)NC1(C(F)(F)F)CC1 [US20250214932, Example 79]
IC50: < 78.2 nM

O=C(CN1CC2(CCC(C(=O)Nc3cc(F)cc(C(F)F)c3)CC2)C1)NC1(C(F)(F)F)CCC1 [US20250214932, Example 85]
IC50: 163 nM

O=C(Nc1cc(F)cc(C(F)F)c1)C1CCC2(CC1)CN(CC(F)(F)C1CCCC1)C2 [US20250214932, Example 100]
IC50: 407 nM

COc1cc(Cl)cc(NC(=O)C2CCC3(CC2)CN(CC2(C#N)CC2)C3)c1 [US20250214932, Example 129]
IC50: 1360 nM

O=C(NC12CC3CC(CC(C3)C1)C2)C1CCC2(CC1)CN(CC1(O)CCC(F)(F)CC1)C2 [US20250214932, Example 153]
IC50: 188 nM
